Key:
[1] = tested on: sedge, umbrella; test: Test B flood; type: in vivo, Cyperus difformis; details: 250 g ai/ha, visual rating on 0 to 100 scale (0 no effect, 100 complete control), 13 to 15 days
How it was run: (§1)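 Visual ratings on a 0–100 scale, where 0 means no effect and 100 means complete control, were assigned by comparison with controls 13 to 15 days after treatment. Compounds went into paddy water over 2-leaf plants flooded to 3 cm.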

[2] = tested on: crabgrass, large; test: Test A preemergence; type: in vivo, Digitaria sanguinalis; details: preemergence
How it was run: (§2)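 Seeds were sown in a loam soil–sand blend and given a directed soil spray preemergence; postemergence plants at 2–10 cm, one- to two-leaf stage, were sprayed with compound in non-phytotoxic solvent with surfactant. After about 10 days in a greenhouse, injury was visually rated against untreated controls (0 = no effect, 100 = complete control).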

[3] = tested on: corn; test: Test A postemergence; type: in vivo, Zea mays
How it was run: as §2

[4] = tested on: ragweed; test: Test C preemergence; type: in vivo, Ambrosia elation; details: for Plant response rating (scale of 0 to 100), Ragweed: Preemergence; for Ragweed plant response rating / Plant response rating, Ragweed: preemergence; for Plant response rating, Ragweed: scale 0 to 100, 0 = no effect, 100 = complete control
How it was run: (§3)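 Greenhouse pot test: preemergence application onto freshly seeded loam/sand mix, postemergence application onto seedlings (1–4 leaves, 2–18 cm) in peat-vermiculite substrate. Responses scored visually 13 to 15 days later relative to controls, where 0 means no effect and 100 means complete control; a dash indicates no result.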

[5] = tested on: crabgrass, large; test: Test A postemergence; type: in vivo, Digitaria sanguinalis
How it was run: as §2

[6] = tested on: barnyardgrass; test: Test A postemergence; type: in vivo, Echinochloa crus-galli
How it was run: as §2

[7] = tested on: nutsedge, yellow; test: Test C preemergence; type: in vivo, Cyperus esculentus; details: for Plant response rating (scale of 0 to 100), Nutsedge, Yellow: Preemergence; for Nutsedge, Yellow plant response rating / Plant response rating, Nutsedge, Yellow: preemergence; for Plant response rating, Nutsedge, Yellow: scale 0 to 100, 0 = no effect, 100 = complete control
How it was run: as §3

[8] = tested on: ducksalad; test: Test B flood; type: in vivo, Heteranthera limosa; details: 250 g ai/ha, visual rating on 0 to 100 scale (0 no effect, 100 complete control), 13 to 15 days
How it was run: as §1

[9] = tested on: rice; test: Test B flood; type: in vivo, Oryza sativa; details: 250 g ai/ha, visual rating on 0 to 100 scale (0 no effect, 100 complete control), 13 to 15 days
How it was run: as §1

[10] = tested on: morningglory; test: Test C preemergence; type: in vivo, Ipomoea coccinea; details: for Plant response rating (scale of 0 to 100), Morningglory: Preemergence; for Morningglory plant response rating / Plant response rating, Morningglory: preemergence; for Plant response rating, Morningglory: scale 0 to 100, 0 = no effect, 100 = complete control
How it was run: as §3

[11] = tested on: velvetleaf; test: Test A postemergence; type: in vivo, Abutilon theophrasti
How it was run: as §2

[12] = tested on: wheat; test: Test A preemergence; type: in vivo, Triticum aestivum; details: preemergence
How it was run: as §2

[13] = tested on: blackgrass; test: Test C preemergence; type: in vivo, Alopecurus myosuroides; details: for Plant response rating (scale of 0 to 100), Blackgrass: Preemergence; for Blackgrass plant response rating / Plant response rating, Blackgrass: preemergence; for Plant response rating, Blackgrass: scale 0 to 100, 0 = no effect, 100 = complete control
How it was run: as §3

[14] = tested on: pigweed; test: Test A postemergence; type: in vivo, Amaranthus retroflexus
How it was run: as §2

[15] = tested on: morningglory; test: Test A preemergence; type: in vivo, Ipomoea spp.; details: preemergence
How it was run: as §2

[16] = 125 g ai/ha, visual injury, 0 to 100 scale, approx. 10 days
[17] = 500 g ai/ha, visual injury after approx. 10 days, 0 to 100 scale (0 no effect, 100 complete control)
[18] = Postemergence, 500 g ai/ha, visual rating after approx. 10 days, 0 to 100 scale (0 no effect, 100 complete control)
[19] = postemergence, 125 g ai/ha, about 10 days, visual rating on 0 to 100 scale (0 no effect, 100 complete control)
[20] = 31 g ai/ha, visual rating, scale 0 to 100 (0 no effect, 100 complete control), 13 to 15 days
[21] = 62 g ai/ha, scale 0 to 100 (0 no effect, 100 complete control), 13 to 15 days
[22] = 125 g ai/ha, scale 0 to 100, 0 is no effect, 100 is complete control
[23] = Postemergence, 500 g ai/ha, 0 to 100 scale (0 no effect, 100 complete control)
[24] = 250 g ai/ha, scale 0 to 100, 0 is no effect, 100 is complete control

| SMILES | Plant response rating, Sedge, Umbrella [1] | Crabgrass, Large plant response rating [2, 16] | Crabgrass, Large plant response rating [2, 17] | Corn plant response rating [3, 19] | Ragweed plant response rating [4, 20] | Ragweed plant response rating [4, 21] | Crabgrass, Large plant response rating [5, 19] | Barnyardgrass plant response rating [6, 19] | Nutsedge, Yellow plant response rating [7, 20] | Nutsedge, Yellow plant response rating [7, 21] | Plant response rating, Ducksalad [8] | Plant response rating, Rice [9] | Morningglory plant response rating [10, 20] | Morningglory plant response rating [10, 21] | Velvetleaf plant response rating [11, 19] | Wheat plant response rating [12, 16] | Wheat plant response rating [12, 17] | Blackgrass plant response rating [13, 20] | Blackgrass plant response rating [13, 21] | Pigweed plant response rating [14, 19] | other results |
| --- | --- | --- | --- | --- | --- | --- | --- | --- | --- | --- | --- | --- | --- | --- | --- | --- | --- | --- | --- | --- | --- |
| CCCc1cc(C(=O)NCC(F)(F)F)nn1Cc1ccnc(C(F)(F)F)c1 [Compound 105] | 95 | 100 | 100 | 80 | 98 | 98 | 100 | 90 | 50 | 85 | 95 | 90 | 100 | 100 | 100 | 60 | 100 | 90 | 90 | 100 | Corn plant response rating [3, 18]: 100; Plant response rating (scale of 0 to 100), Ragweed ([4]; 250 g ai/ha): 98; Ragweed plant response rating [4, 22]: 98; Crabgrass, Large plant response rating [5, 18]: 100; Barnyardgrass plant response rating [6, 18]: 100; Plant response rating (scale of 0 to 100), Nutsedge, Yellow ([7]; 250 g ai/ha): 95; Nutsedge, Yellow plant response rating [7, 22]: 95; Plant response rating (scale of 0 to 100), Morningglory ([10]; 250 g ai/ha): 100; Morningglory plant response rating [10, 22]: 100; Velvetleaf plant response rating [11, 18]: 100; Plant response rating (scale of 0 to 100), Blackgrass ([13]; 250 g ai/ha): 90; Blackgrass plant response rating [13, 22]: 90; Pigweed plant response rating [14, 18]: 100; Morningglory plant response rating [15, 16]: 100; Morningglory plant response rating [15, 17]: 100 |
| CCCc1cc(C(=O)NCC)nn1Cc1cc(C(F)(F)F)nn1C [Compound 129] | 95 | 100 | 100 | 50 | 85 | 90 | 80 | 90 | 5 | 25 | 95 | 40 | 45 | 98 | 90 | 50 | 100 | 60 | 80 | 100 | Corn plant response rating [3, 23]: 80; Plant response rating (scale of 0 to 100), Ragweed ([4]; 250 g ai/ha): 100; Plant response rating, Ragweed ([4]; 125 g ai/ha, 13 to 15 days): 98; Crabgrass, Large plant response rating [5, 23]: 90; Barnyardgrass plant response rating [6, 23]: 90; Plant response rating (scale of 0 to 100), Nutsedge, Yellow ([7]; 250 g ai/ha): 75; Plant response rating, Nutsedge, Yellow ([7]; 125 g ai/ha, 13 to 15 days): 60; Plant response rating (scale of 0 to 100), Morningglory ([10]; 250 g ai/ha): 100; Plant response rating, Morningglory ([10]; 125 g ai/ha, 13 to 15 days): 100; Velvetleaf plant response rating [11, 23]: 100; Plant response rating (scale of 0 to 100), Blackgrass ([13]; 250 g ai/ha): 90; Plant response rating, Blackgrass ([13]; 125 g ai/ha, 13 to 15 days): 90; Pigweed plant response rating [14, 23]: 100; Morningglory plant response rating [15, 16]: 100; Morningglory plant response rating [15, 17]: 100 |
| CCNC(=O)c1cc(CC)n(Cc2ccnc(OC(F)F)c2)n1 [Compound 130] | 90 | 100 | 100 | 70 | 70 | 100 | 70 | 70 | 25 | 65 | 90 | 15 | 65 | 98 | 80 | 10 | 90 | 25 | 98 | 100 | Corn plant response rating [3, 23]: 90; Plant response rating (scale of 0 to 100), Ragweed ([4]; 250 g ai/ha): 100; Plant response rating, Ragweed ([4]; 125 g ai/ha, 13 to 15 days): 100; Crabgrass, Large plant response rating [5, 23]: 90; Barnyardgrass plant response rating [6, 23]: 90; Plant response rating (scale of 0 to 100), Nutsedge, Yellow ([7]; 250 g ai/ha): 75; Plant response rating, Nutsedge, Yellow ([7]; 125 g ai/ha, 13 to 15 days): 75; Plant response rating (scale of 0 to 100), Morningglory ([10]; 250 g ai/ha): 100; Plant response rating, Morningglory ([10]; 125 g ai/ha, 13 to 15 days): 100; Velvetleaf plant response rating [11, 23]: 100; Plant response rating (scale of 0 to 100), Blackgrass ([13]; 250 g ai/ha): 98; Plant response rating, Blackgrass ([13]; 125 g ai/ha, 13 to 15 days): 98; Pigweed plant response rating [14, 23]: 100; Morningglory plant response rating [15, 16]: 100; Morningglory plant response rating [15, 17]: 100 |
| CCCNC(=O)c1cc(CC)n(Cc2ccnc(OC(F)F)c2)n1 [Compound 132] | 90 | 100 | 100 | 70 | 70 | 90 | 90 | 90 | 35 | 55 | 100 | 35 | 60 | 100 | 100 | 80 | 100 | 95 | 98 | 90 | Corn plant response rating [3, 23]: 90; Plant response rating (scale of 0 to 100), Ragweed ([4]; 250 g ai/ha): 100; Plant response rating, Ragweed ([4]; 125 g ai/ha, 13 to 15 days): 100; Crabgrass, Large plant response rating [5, 23]: 90; Barnyardgrass plant response rating [6, 23]: 90; Plant response rating (scale of 0 to 100), Nutsedge, Yellow ([7]; 250 g ai/ha): 70; Plant response rating, Nutsedge, Yellow ([7]; 125 g ai/ha, 13 to 15 days): 80; Plant response rating (scale of 0 to 100), Morningglory ([10]; 250 g ai/ha): 100; Plant response rating, Morningglory ([10]; 125 g ai/ha, 13 to 15 days): 100; Velvetleaf plant response rating [11, 23]: 100; Plant response rating (scale of 0 to 100), Blackgrass ([13]; 250 g ai/ha): 98; Plant response rating, Blackgrass ([13]; 125 g ai/ha, 13 to 15 days): 98; Pigweed plant response rating [14, 23]: 100; Morningglory plant response rating [15, 16]: 100; Morningglory plant response rating [15, 17]: 100 |
| CCc1cc(C(=O)NC(C)C)nn1Cc1ccnc(C(F)(F)F)c1 [Compound 139] | 100 | 100 | 100 | 50 | 15 | 75 | 90 | 80 | 15 | 10 | 100 | 50 | 5 | 35 | 40 | 50 | 100 | 85 | 90 | 90 | Corn plant response rating [3, 23]: 90; Plant response rating, Ragweed ([4]; 125 g ai/ha, 13 to 15 days): 90; Ragweed plant response rating [4, 24]: 95; Crabgrass, Large plant response rating [5, 23]: 90; Barnyardgrass plant response rating [6, 23]: 90; Plant response rating, Nutsedge, Yellow ([7]; 125 g ai/ha, 13 to 15 days): 35; Nutsedge, Yellow plant response rating [7, 24]: 50; Plant response rating, Morningglory ([10]; 125 g ai/ha, 13 to 15 days): 98; Morningglory plant response rating [10, 24]: 98; Velvetleaf plant response rating [11, 23]: 90; Plant response rating, Blackgrass ([13]; 125 g ai/ha, 13 to 15 days): 90; Blackgrass plant response rating [13, 24]: 90; Pigweed plant response rating [14, 23]: 100; Morningglory plant response rating [15, 16]: 40; Morningglory plant response rating [15, 17]: 100 |

From patent US20150105252A1, “SUBSTITUTED PYRAZOLES AS HERBICIDES” (E I DU PONT DE NEMOURS AND COMPANY, priority 2013, published 2015)
